According to US6043228A, “O^6 -substituted guanine derivatives, a process for their preparation and their use in treating tumor cells” (Cancer Research Campaign Technology Limited, priority 1993, dated 2000):
“Also recorded” adds a separate entry of the source.

Key:
[1] = test system: Raji cells; test: Sensitization of Raji cells to BCNU (XTT assay); assay type: cell-based, human
Experimental: Following a 2 hour incubation at 37° C., medium containing either increasing doses of BCNU, temozolomide or equivalent vehicle was added and the cells allowed to grow for 6 days. At this time XTT solution was added and the cells incubated for a further 4 hours at 37° C. The resulting red/orange formazan reaction product was quantified by measuring absorption at 450 nm on a microtitre platereader.

[2] = test system: nude mice; test: Xenograft study: survival of nude mice given inactivator plus BCNU; conditions: FIGS. 9-13
From the text: BALB-C derived athymic male mice (nu/nu athymic) weighing between 25-35 g were obtained from the in-house breeding colony of the Paterson Institute for Cancer Research, Christie Hospital NHS Trust, Wilmslow Road, Manchester M20 9BX, England (ASU mice). The animals were housed in a sterile environment until required for experiments. In one experiment mice were obtained from Harlan-Olac, Harlan UK Limited, Shaw's Farm, Blackthorn, Bicester, Oxon. OX6 OPT, England (OLAC mice).

[3] = test system: Xeroderma pigmentosum cells; test: Sensitivity of mammalian cells to the inactivators alone: XP cells; assay type: cell-based, human; conditions: inactivator alone (FIG. 6)
Experimental: (§1) In order to assess the effects on cell growth alone, Xeroderma pigmentosum cells and Chinese Hamster V79 cells were exposed to increasing concentrations (up to 600 μM) of selected inactivators for 2 h at 37°. In some cases, the inactivators were allowed to undergo hydrolysis at 37° C. for 20 hours and then added to Raji cells in order to assess the extent to which the decomposition products of the agents might inhibit cell growth. After 6 days the extent of cell growth was determined as described above.

[4] = as above; assay type: cell-based, human; conditions: human, xp cells; FIG. 6; read-out: dose required for growth inhibition relative to that required for ATase inactivation
Experimental: as §1

[5] = test system: bone marrow cells; test: Inactivator toxicity in bone marrow cells (GM-CFC colonies, inactivator alone); assay type: cell-based, human; conditions: 10 μM, 5 patients (Table 7)
From the text: For the granulocyte/macrophage colony-forming cell (GM-CFC) assay primary human bone marrow samples were obtained from patients undergoing cardiothoracic surgery. […] The colonies represented precursor cells of the granulocyte/macrophage lineage (huGM-CFC). Survival was expressed as a % of the number of colonies at zero dose temozolomide.

[6] = molecular target: T1, ATase in WiDr cells (Homo sapiens, UniProt P16455); test: Inactivation of ATase activity in mammalian cells: WiDr; assay type: cell-based; conditions: read-out: Inactivation of ATase in Mammalian Cells I50
T1 construct: WiDr cells are a human colon carcinoma cell line; endogenous in cells; host or cells: WiDr
T1 sequence (P16455 1-207): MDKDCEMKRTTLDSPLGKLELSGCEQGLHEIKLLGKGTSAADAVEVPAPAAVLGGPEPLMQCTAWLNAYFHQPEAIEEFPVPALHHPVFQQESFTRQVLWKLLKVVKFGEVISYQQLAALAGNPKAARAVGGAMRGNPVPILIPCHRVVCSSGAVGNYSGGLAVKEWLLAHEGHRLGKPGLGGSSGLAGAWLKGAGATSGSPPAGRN
Experimental: Mammalian cells were cultured under standard conditions. For example, Raji (a human lymphoblastoid cell line from a Burkitt's lymphoma) cells were grown in suspension culture in RPMI medium supplemented with 10% horse serum. A375M cells are human melanoma cells from which the xenografts described below were established following subcutaneous injection into nude mice: WiDr cells are a human colon carcinoma cell line: Hamster+120 cells are a mitozolomide-selected subline of a Chinese hamster lung fibroblast V79 cell line called RJKO: Yoshida cells are a rat carcinosarcoma cell line and YRbus is a busulphan resistant subline thereof: XP cells are an SV40-transformed fibroblast cell line originally from the skin of a Xeroderma piamentosum patient, pHMGhAT2b cells are a clone of these cells that have been transfected with a mammalian cell expression vector containing the human ATase cDNA and pHMGla cells are a clone that have been transfected with the expression vector only (i.e. one not containing the human ATase cDNA). Cell pellets were resuspended in cold (4° C.) buffer I containing 2 μg/ml leupeptin and sonicated for 10 seconds at 12μ peak to peak distance. After cooling in ice, the cells were sonicated for a further 10 seconds at 18μ. […]

[7] = test system: nude mice; test: Survival of xenograft-bearing nude mice given inactivator plus temozolomide; assay type: in vivo, mouse
Experimental: Mice were treated with the inactivator as a suspension in corn oil by intraperitoneal injection (i.p.) or by oral gavage (p.o.) 60 mins prior to temozolomide (100 mg/kg in 20% DMSO in phosphate-buffered saline) which was always given by intraperitoneal injection: this schedule was repeated on days 1 to 5 inclusive. Controls received vehicle alone, inactivator alone or temozolomide alone.
The mice in the tests shown in FIGS. 19-24 were Swiss mouse derived athymic male mice ([…]) from ZENECA Pharmaceuticals, Mereside, Alderley Park, Macclesfield, Cheshire SK10 4T6, England.

SMILES	sensitizing Raji cells to growth inhibitory effects of BCNU, in words ([1]; 0.1 μM inactivator (FIG. 2))	sensitizing Raji cells to growth inhibitory effects of BCNU, in words ([1]; 1.0 μM inactivator (FIG. 2))	toxicity in combination with BCNU in nude mice, in words [2]	growth inhibition / toxicity to XP cells, in words [3]	selectivity ratio [4]	toxic effect of inactivator alone on bone marrow cells, in words [5]	IC50 [6]	toxicity of oral combination versus i.p. route, in words ([7]; with temozolomide (FIG. 24B))	toxicity at equi-effective doses for tumour growth inhibition, in words ([7]; with temozolomide (FIGS. 21B, 22B))
Nc1nc(OCc2cccs2)c2nc[nH]c2n1 [B.4205, 0^6 -thenylguanine]	more effective than BeG	equally effective	substantially less toxic in combination with BCNU than BeG in combination with BCNU; also recorded: very little effect	more sensitive than V79 cells; also recorded: toxic	≥ 100	comparable to those for O^6 -benzylguanine	20 nM	–	–
Nc1nc(OCc2cc(Br)cs2)c2nc[nH]c2n1 [B.4280, O^6-(4-bromothenyl)guanine]	–	–	–	–	–	–	–	marginally less toxic than the i.p. route	less toxic than B.4205
